Test systems include SK-MEL-5; Malme-3M; RPMI-8226; K562; HCT-15; A549; EKVX; UO-31; UACC-257; NCI-H23; SF-539; OVCAR-5; SK-OV-3; SNB-75; A498.
What all share (assay): NCI-60 cell line screen, 48 h

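Five compound concentrations were applied to cells in 96-well plates for 48 hours; endpoints were derived by simple linear interpolation of the resulting dose-response curve. GI50 marks 50% less growth.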 The source made the active and inactive calls. Rule as the data show it: active = GI50 up to about 1.1 µM and inactive = higher.

Turning to `CCOC(C[C@H](O[Si](C)(C)C(C)(C)C)[C@H]1COC(=S)S1)OCC`, the GI50 is 48.1 µM (inactive) with SK-MEL-5; > 100 µM (inactive) in the experiment on Malme-3M; 32.1 µM (inactive) in the experiment on RPMI-8226; 41.3 µM (inactive) in the experiment with K562; 55.1 µM in the experiment on HCT-15; 70.5 µM (inactive) with A549. The GI50 was > 100 µM (inactive) with EKVX; 35 µM (inactive) in the experiment with UO-31; 35 µM (inactive) in the experiment on UACC-257; 53.5 µM (inactive) in the experiment with NCI-H23; 33.6 µM (inactive) with SF-539.
On to `Cc1c2cc[n+](C)cc2c(C)c2c1[nH]c1ccc(Oc3ccccc3)cc12`, for which the GI50 in the experiment with SK-MEL-5 is 1.01 µM (active); in the experiment on OVCAR-5 it was 2.51 µM (inactive); in the experiment with SK-OV-3, 1.14 µM (inactive); in the experiment on Malme-3M, 1.71 µM (inactive); in the experiment on RPMI-8226, 2.64 µM (inactive); in the experiment on K562, 0.665 µM (active). The GI50 was 0.441 µM (active) in the experiment on SNB-75; 4.69 µM in the experiment on HCT-15; 0.272 µM (active) in the experiment on A549; 3.08 µM (inactive) in the experiment on EKVX; 5.08 µM (inactive) in the experiment on UO-31; 1.28 µM (inactive) in the experiment on UACC-257. The figures for the GI50 in the experiment with NCI-H23 and in the experiment with SF-539 were 0.53 µM (active) and 1.26 µM (inactive), respectively.
On to `COc1ccc2nc(NC(=O)C(=O)C(C#N)c3ccc([N+](=O)[O-])cc3)sc2c1` (stereo not drawn), for which the GI50 was > 100 µM (inactive) in the experiment on SK-MEL-5; > 100 µM (inactive) in the experiment on OVCAR-5; > 100 µM (inactive) in the experiment with SK-OV-3; > 100 µM (inactive) with Malme-3M; 31.2 µM (inactive) with RPMI-8226; 72.1 µM (inactive) in the experiment on K562. In addition, the GI50 in the experiment on SNB-75 was > 100 µM (inactive); with HCT-15, over 100 µM; in the experiment with A549, > 100 µM (inactive); in the experiment on EKVX it was 31.9 µM (inactive); in the experiment with UO-31, 11.2 µM (inactive); with UACC-257, > 100 µM (inactive). The GI50 with NCI-H23 and in the experiment on SF-539 was > 100 µM (inactive) throughout.
Turning to `CSCCOC(=O)C(=[N+]=[N-])c1ccc([N+](=O)[O-])cc1`, the GI50 in the experiment with OVCAR-5, in the experiment with SK-OV-3, in the experiment on Malme-3M, in the experiment with RPMI-8226, with K562 and in the experiment with SNB-75 was > 100 µM (inactive) throughout. The GI50 in the experiment with HCT-15 is over 100 µM; in the experiment with A549, > 100 µM (inactive); with EKVX it was > 100 µM (inactive); with UO-31, > 100 µM (inactive); in the experiment on UACC-257, > 100 µM (inactive); in the experiment on NCI-H23, > 100 µM (inactive). Moreover, the GI50 in the experiment with SF-539 is > 100 µM (inactive).
`CC(CCC(=O)O)c1ccc(Br)cc1` (stereo not drawn): the GI50 in the experiment on SK-MEL-5, in the experiment with OVCAR-5, in the experiment with SK-OV-3, with Malme-3M, in the experiment on RPMI-8226 and in the experiment on K562 was > 100 µM (inactive) in each case. Besides, the GI50 in the experiment on SNB-75 was > 100 µM (inactive); with HCT-15 it was over 100 µM; with A549, > 100 µM (inactive); with EKVX it was > 100 µM (inactive); in the experiment with UO-31, > 100 µM (inactive); with UACC-257 it was > 100 µM (inactive). Besides, the GI50 in the experiment with NCI-H23 is > 100 µM (inactive).
For the compound `NCCCCNc1ccc2c(=O)[nH][nH]c(=O)c2c1`, the GI50 in the experiment with SK-MEL-5, in the experiment on OVCAR-5, in the experiment on A498, with SK-OV-3, with Malme-3M and with K562 was > 100 µM (inactive) throughout. Also, the GI50 in the experiment on SNB-75, with A549, in the experiment on EKVX, in the experiment on UO-31, in the experiment with UACC-257 and in the experiment on NCI-H23 was > 100 µM (inactive) each time. The GI50 in the experiment on SF-539 was > 100 µM (inactive).

Source of the values: ChEMBL document CHEMBL1201862, “PubChem BioAssay data set” (2004).
